In one data set the test system is Male SD rats. The data set is described as follows: Hypoglycemic action in rats (oral glucose tolerance test). As to conditions: Rattus norvegicus, 0.5 h, male SD rats fasted overnight, glucose load 2 g/kg 60 min later, blood drawn 30 min after starting glucose loading, read-out: glucose level (% of control); for response vs control in vivo at 30 mg/kg: 30 mg/kg body weight oral; for response vs control in vivo at 50 mg/kg: 50 mg/kg body weight oral. The data set is classed as in vivo. On the procedure:
Hypoglycemic Action in Rats
Male SD rats (7 weeks of age, 5 per group) were fasted overnight and blood was drawn from the tail vein to measure the glucose level before administration of the test compound. Then the test compound (30 mg/kg body weight/10 mL (compounds of Examples 8, 16, 66, 68, 79, 94, 123) or 50 mg/kg body weight/10 mL (compounds of Examples 58, 70)) suspended in 0.5% methyl cellulose was orally administered to the rats using a gastric tube. Oral glucose tolerance test (2 g/kg body weight/10 mL) was started 60 min later. Blood was drawn at 30 min after starting the glucose loading, and glucose level was measured. The glucose level was measured using an automatic analyzer (HITACHI 7070).

For data set [1], the system named is pancreatic Langerhans' islet of rats. The data set can be described thus: Insulin secretion promoting action in pancreatic Langerhans' islet of rats. In kind it is cell-based, rat. The conditions noted are these: test compound 100 μmol/L, 7.5 mmol/L glucose, 1 hr incubation; insulin secretion amount relative to control group, amended by DNA amount. On the procedure:
Insulin Secretion Promoting Action in Pancreatic Langerhans' Islet of Rats
The pancreas of 8-week-old male SD rat was treated with collagenase and the isolated Langerhans' islet was preincubated for 1 hr in a medium (KRB) containing 2.8 mmol/L glucose in a 24 well incubation plate, which was followed by incubation for 1 hr in KRB containing the test compound (100 μmol/L, see Table 2) and 7.5 mmol/L glucose (control group was free of test compound). The medium was recovered and the amount of the secreted insulin was measured using a radioimmunoassay kit (trademark: SHIONORIA insulin kit (manufactured by Shionogi & Co., Ltd.)). The Langerhans' islet was lysed by ultrasonication and the DNA amount was measured, based on which the insulin level in the medium was amended. The insulin secretion amount of the test compound group is expressed in a value (%) relative to the control group and shown in Table 2.

We go through twelve compounds from patent publication US7022725B2, “Isoxazole derivatives” (Takeda Pharmaceutical Company Limited, priority 2000, dated 2006).

In the case of `O=C(O)CCc1cnoc1-c1ccc(Cl)cc1` [Example 8, 3-[5-(4-chlorophenyl)-4-isoxazolyl]propionic acid], the response vs control in vivo at 30 mg/kg with Male SD rats worked out at 85%. Moreover, the “insulin secretion promoting action (%)” value in data set [1] was determined as 256%.
For `OCCCc1cnoc1-c1ccc(Cl)cc1` [Example 16, 3-[5-(4-chlorophenyl)-4-isoxazolyl]propan-1-ol], the response vs control in vivo at 30 mg/kg with Male SD rats was 88%.
As to `OCCCc1cnoc1-c1ccc(F)cc1` [Example 58, 3-[5-(4-fluorophenyl)-4-isoxazolyl]propan-1-ol], in the data set with Male SD rats, the response vs control in vivo at 50 mg/kg came out at 85%.
As usually defined, the melting point is the temperature, or range, at which the solid turns liquid. `O=C(O)CCc1cnoc1-c1ccc(Cl)s1` [Example 64, 3-[5-(5-chloro-2-thienyl)-4-isoxazolyl]propionic acid] gave a melting point of 138 to 139 °C. For the same compound, the “insulin secretion promoting action (%)” value in data set [1] is recorded as 273%.
Take `OCCCc1cnoc1-c1ccc(Cl)s1` [Example 66, 3-[5-(5-chloro-2-thienyl)-4-isoxazolyl]propan-1-ol]: the response vs control in vivo at 30 mg/kg with Male SD rats came to 80%.
`OCCCc1cnoc1-c1ccc(Cl)c(Cl)c1` [Example 68, 3-[5-(3,4-dichlorophenyl)-4-isoxazolyl]propan-1-ol]: the response vs control in vivo at 30 mg/kg in the data set with Male SD rats was determined as 75%.
`O=C(O)CCc1cnoc1-c1ccc(Cl)c(Cl)c1` [Example 70, 3-[5-(3,4-dichlorophenyl)-4-isoxazolyl]propionic acid] displayed a melting point of 171 to 172 °C. In addition, the response vs control in vivo at 50 mg/kg with Male SD rats is 88%. Besides, the “insulin secretion promoting action (%)” value in data set [1] came to 235%.
In the case of `O=C(O)CCc1cnoc1-c1ccc(F)c(F)c1` [Example 77, 3-[5-(3,4-difluorophenyl)-4-isoxazolyl]propionic acid], the melting point fell in the range of 102 to 103 °C. In addition, in data set [1], the “insulin secretion promoting action (%)” value was determined as 201%.
Regarding `OCCCc1cnoc1-c1ccc(F)c(F)c1` [Example 79, 3-[5-(3,4-difluorophenyl)-4-isoxazolyl]propan-1-ol], in the data set with Male SD rats, the response vs control in vivo at 30 mg/kg is 77%.
For `O=C(O)CCc1cnoc1-c1ccc(F)c(Cl)c1` [Example 92, 3-[5-(3-chloro-4-fluorophenyl)-4-isoxazolyl]propionic acid], the melting point was 118 to 119 °C. Moreover, in data set [1], the “insulin secretion promoting action (%)” value was determined as 156%.
As for `OCCCc1cnoc1-c1ccc(F)c(Cl)c1` [Example 94, 3-[5-(3-chloro-4-fluorophenyl)-4-isoxazolyl]propan-1-ol], the response vs control in vivo at 30 mg/kg in the data set on Male SD rats came out at 81%.
As to `O=C(O)CCc1cnoc1-c1cc(Cl)c(Cl)s1` [Example 123, 3-[5-(4,5-dichloro-2-thienyl)-4-isoxazolyl]propionic acid], the melting point lay within 142 to 143 °C. Further, in the data set on Male SD rats, the response vs control in vivo at 30 mg/kg worked out at 86%.
